Counter-ions that a name gives are not always drawn.
Columns and labels:
Assay in all cases: In vitro antibacterial activity (MIC)
Type in all cases: cell-based
C. diversus CDC 1663-72 = details: Citrobacter koseri, CDC166372
Experimental: (§1) Drug dilutions are prepared in Mueller-Hinton broth ranging from 128 to 0.008 μg/ml. The diluted agents are dispensed in 100 μl amounts into the wells of a 96-well tray and used immediately or frozen at -10° to -70° C. until needed. Using an automated inoculator, 1.5 μl of a 10^-2 dilution of an overnight culture is added to each well of the tray. The tops of the trays are then sealed using transparent tape and incubated overnight at 37° C. The trays are examined with the aid of a viewer. The lowest concentration at which no growth is observed is considered to be the minimum inhibitory concentration (MIC).

C. freundii 8ASM = details: Citrobacter freundii, 8ASM, C. freundii 8ASM; read-out: MIC
Experimental: as §1

C. freundii CDC6 = details: Citrobacter freundii, CDC6
Experimental: as §1

E. aerogenes 503-478 = details: Klebsiella aerogenes, 503478, E. aerogenes 503-478; read-out: MIC
Experimental: as §1

E. aerogenes 83 = details: Klebsiella aerogenes, 83, E. aerogenes 83; read-out: MIC
Experimental: as §1

E. cloacae 214 = details: Enterobacter cloacae, 214, E. cloacae 214; read-out: MIC
Experimental: as §1

E. cloacae 5699 = details: Enterobacter cloacae, 5699, E. cloacae 5699; read-out: MIC
Experimental: as §1

E. cloacae 9295 = details: Enterobacter cloacae, 9295, E. cloacae 9295; read-out: MIC
Experimental: as §1

E. cloacae 9570A = details: Enterobacter cloacae, read-out: MIC
Experimental: as §1

E. cloacae P99 = details: Enterobacter cloacae, P99, E. cloacae P99
Experimental: as §1

E. coli 387-1 = details: Escherichia coli, 3871
Experimental: as §1

E. coli 48 = details: Escherichia coli, 48
Experimental: as §1

E. coli 4 = details: Escherichia coli, 4
Experimental: as §1

E. coli 503-455 = details: Escherichia coli, 503455, E. coli 503-455; read-out: MIC
Experimental: as §1

E. coli 5152 = details: Escherichia coli, 5152, E. coli 5152; read-out: MIC
Experimental: as §1

E. coli R-563 = details: Escherichia coli, R563
Experimental: as §1

K. pneumoniae 35 = details: Klebsiella pneumoniae; K. pneumoniae 35; read-out: MIC
Experimental: as §1

K. pneumoniae 4964 = details: Klebsiella pneumoniae, 4964, K. pneumoniae 4964; read-out: MIC
Experimental: as §1

K. pneumoniae 503-964 = details: Klebsiella pneumoniae, 503964; K. pneumoniae 503-964; read-out: MIC
Experimental: as §1

K. pneumoniae 5096 = details: Klebsiella pneumoniae; K. pneumoniae 5096; read-out: MIC
Experimental: as §1

P. aeruginosa 503-820 = details: Pseudomonas aeruginosa, 503820; P. aeruginosa 503-820; read-out: MIC
Experimental: as §1

P. aeruginosa 5700 = details: Pseudomonas aeruginosa, 5700, P. aeruginosa 5700; read-out: MIC
Experimental: as §1

P. aeruginosa 6148B = details: Pseudomonas aeruginosa, read-out: MIC
Experimental: as §1

P. aeruginosa 8710 = details: Pseudomonas aeruginosa; P. aeruginosa 8710; read-out: MIC
Experimental: as §1

P. aeruginosa 8780 = details: Pseudomonas aeruginosa; P. aeruginosa 8780; read-out: MIC
Experimental: as §1

P. mirabilis 190 = details: Proteus mirabilis, 190, P. mirabilis 190; read-out: MIC
Experimental: as §1

P. mirabilis 90 = details: Proteus mirabilis, 90, P. mirabilis 90; read-out: MIC
Experimental: as §1

P. vulgaris 100 = details: Proteus vulgaris; P. vulgaris 100; read-out: MIC
Experimental: as §1

P. vulgaris 101 = details: Proteus vulgaris, 101, P. vulgaris 101; read-out: MIC
Experimental: as §1

S. faecalis C1 = details: Enterococcus faecalis; S. faecalis C1; read-out: MIC
Experimental: as §1

S. marcescens S147 = details: Serratia marcescens; S. marcescens S147; read-out: MIC
Experimental: as §1

S. marcescens S1 = details: Serratia marcescens, S1, S. marcescens S1; read-out: MIC
Experimental: as §1

S. marcescens S2 = details: Serratia marcescens; S. marcescens S2; read-out: MIC
Experimental: as §1

S. marcescens S3 = details: Serratia marcescens; S. marcescens S3; read-out: MIC
Experimental: as §1

S. marcescens S4 = details: Serratia marcescens, S4, S. marcescens S4; read-out: MIC
Experimental: as §1

S. marcescens S714 = details: Serratia marcescens, S714, S. marcescens S714; read-out: MIC
Experimental: as §1

S. pneumoniae 6301 = details: Streptococcus pneumoniae, 6301, S. pneumoniae 6301; read-out: MIC
Experimental: as §1

S. pneumoniae 6302 = details: Streptococcus pneumoniae, 6302, S. pneumoniae 6302; read-out: MIC
Experimental: as §1

S. pneumoniae SC = details: Streptococcus pneumoniae, read-out: MIC
Experimental: as §1

S. pyogenes 4 = details: Streptococcus pyogenes, 4, S. pyogenes 4; read-out: MIC
Experimental: as §1

S. pyogenes 503-782 = details: Streptococcus pyogenes, 503782; S. pyogenes 503-782; read-out: MIC
Experimental: as §1

S. schottmuelleri = details: read-out: MIC
Experimental: as §1

SMILES: CC1(C)S[C@@H]2[C@H](N=CN3CCC(c4ncc[nH]4)CC3)C(=O)N2[C@H]1C(=O)O [O, [2S-(2alpha,5alpha,6beta)]-6-[[[4-(1H-imidazol-2-yl-1-piperidinyl]methylene]amino]-3,3-dimethyl-7-oxo-4-thia-1-azabicyclo[3.2.0]heptane-2-carboxylic acid hydrochloride trihydrate]
- MIC (C. diversus CDC 1663-72): 0.125 µg/mL
- MIC (C. freundii 8ASM): 0.062 µg/mL
- MIC (C. freundii CDC6): 0.125 µg/mL
- MIC (E. aerogenes 503-478): > 128 µg/mL
- MIC (E. aerogenes 83): 8 µg/mL
- MIC (E. cloacae 214): 0.5 µg/mL
- MIC (E. cloacae 5699): 0.5 µg/mL
- MIC (E. cloacae 9295): 1 µg/mL
- MIC (E. cloacae 9570A): 0.5 µg/mL
- MIC (E. cloacae P99): 0.062 µg/mL
- MIC (E. coli 387-1): 0.125 µg/mL
- MIC (E. coli 48): 0.125 µg/mL
- MIC (E. coli 4): 0.125 µg/mL
- MIC (E. coli 503-455): 1 µg/mL
- MIC (E. coli 5152): 16 µg/mL
- MIC (E. coli R-563): 0.125 µg/mL
- MIC (K. pneumoniae 35): 1 µg/mL
- MIC (K. pneumoniae 4964): 64 µg/mL
- MIC (K. pneumoniae 503-964): 0.5 µg/mL
- MIC (K. pneumoniae 5096): 64 µg/mL
- MIC (P. aeruginosa 503-820): > 128 µg/mL
- MIC (P. aeruginosa 5700): 0.5 µg/mL
- MIC (P. aeruginosa 6148B): > 128 µg/mL
- MIC (P. aeruginosa 8710): > 128 µg/mL
- MIC (P. aeruginosa 8780): > 128 µg/mL
- MIC (P. mirabilis 190): 0.5 µg/mL
- MIC (P. mirabilis 90): 0.5 µg/mL
- MIC (P. vulgaris 100): 8 µg/mL
- MIC (P. vulgaris 101): 32 µg/mL
- MIC (S. faecalis C1): 32 µg/mL
- MIC (S. marcescens S147): 0.25 µg/mL
- MIC (S. marcescens S1): 0.5 µg/mL
- MIC (S. marcescens S2): 0.5 µg/mL
- MIC (S. marcescens S3): 0.25 µg/mL
- MIC (S. marcescens S4): 2 µg/mL
- MIC (S. marcescens S714): 1 µg/mL
- MIC (S. pneumoniae 6301): 1 µg/mL
- MIC (S. pneumoniae 6302): 1 µg/mL
- MIC (S. pneumoniae SC): 1 µg/mL
- MIC (S. pyogenes 4): 0.5 µg/mL
- MIC (S. pyogenes 503-782): 32 µg/mL
- MIC (S. schottmuelleri): 0.125 µg/mL
